Laboratory results published in patent US4315023A, “1-Phenethylimidazole derivatives” (Westwood Pharmaceuticals, Inc., priority 1980, dated 1982).
Structures can show the parent of a compound that is named as a salt.

What was measured:
Staphylococcus aureus = test: in vitro antibacterial activity (MIC), S. aureus; format: cell-based; settings: Nutrient Broth
Candida albicans = Candida albicans induced vaginal infection in mice; format: in vivo, female mice; settings: Table I; percentage drug concentration giving 50% of the score of untreated control; intravaginal
Description: A majority of the compounds of formula 3 were evaluated together with the prior art compound of formula 2 in a Candida albicans induced vaginal infection in mice and a Trichophyton quinekeanum induced skin infection in guinea pigs. Sabouraud broth was inoculated with Candida albicans and the inoculum incubated for two days at 28° C. on a rotary shaker. Groups of four to five female mice weighing between 18-21 grams were infected intravaginally with a 0.01 ml portion of the cell suspension containing 10^8 cells/ml on day 0. The mice were treated subcutaneously with 0.5 mg of estradiol benzoate three days before and four days after infection. The test compounds were suspended in 1% carboxymethyl cellulose and 0.02 ml of the suspension was instilled intravaginally from day 0 (four hours after infection) to day 4 (5 applications). On day 7, vaginal exudate was taken by a thin glass rod and streaked on a YGP agar plate containing 100 mcg/ml of chloramphenicol. The plate was incubated for two days at 28° C. […] In the following Table I the antifungal activity of the test compound is reported as the EC50 value, which is the percentage drug concentration giving 50% of the score of untreated control animals. The EC50 was calculated by the method of least squares (K. Brounlee: Statistical Theory and Methodology in Science and Engineering, pages 345-349, Wiley Press, New York, 1965). In Table II a more detailed comparison on the in vivo antifungal activities of compound 3a and the isomeric prior art compound 2 are shown together with the data for compound 3b.

S. faecalis = test: in vitro antibacterial activity (MIC), S. faecalis; format: cell-based, Streptococcus faecalis; settings: Enterococcus faecalis; Nutrient Broth
Streptococcus pyogenes = test: in vitro antibacterial activity (MIC), S. pyogenes; format: cell-based; settings: 50% Nutrient Broth + 5% human serum
Streptococcus pneumoniae = test: in vitro antibacterial activity (MIC), S. pneumoniae; format: cell-based; settings: 50% Nutrient Broth + 5% human serum
Trichophyton quinekeanum = Trichophyton quinekeanum induced skin infection in guinea pigs; format: in vivo, male guinea pigs; settings: Table I; percentage drug concentration giving 50% of the score of untreated control; topical ointment
Description: In the guinea pig skin infection test, Trichophyton quinekeanum was cultured on a YGP agar slant at 28° C. for 10 days. Spores were collected from the mycelial mat and suspended in Sabouraud broth containing 2% of Tween 80. Groups of 3 male guinea pigs weighing between 400-500 g were used for each dose of test compound. The flanks of the animals were depilated and injured with sandpaper. The injured area was inoculated and rubbed with a glass rod on day 0 with 0.2 ml of the spore suspension containing 10^8 CFU/ml. The test compound was combined with a 1:1 mixture of polyethylene glycol 400 and 4000, and 0.3 ml of the ointment was applied to the infected area on day 1, 3 and 5. Lesions were examined on day 7 and scored as follows: 0, normal; 1, erythema; 2, erythema with whitish area; 3, erythema and numerous whitish areas; 4, erythema with confluent scaling and whitish pateches. A compound showing a mean score of 1.5 or less was considered active.
In the following Table I the antifungal activity of the test compound is reported as the EC50 value, which is the percentage drug concentration giving 50% of the score of untreated control animals. The EC50 was calculated by the method of least squares (K. Brounlee: Statistical Theory and Methodology in Science and Engineering, pages 345-349, Wiley Press, New York, 1965). In Table II a more detailed comparison on the in vivo antifungal activities of compound 3a and the isomeric prior art compound 2 are shown together with the data for compound 3b.
Treatment: 5 applications (day 0 to 4) against candida vaginal infection
and 3 applications (day 1, 3 and 5) against trichophyton skin infection

| SMILES | MIC (Staphylococcus aureus; Strain A) [µg/mL] | MIC (Staphylococcus aureus; Strain B) [µg/mL] | MIC (Staphylococcus aureus; Strain C) [µg/mL] | EC50, Candida Vaginal Infection (Candida albicans) [%] | MIC (S. faecalis) [µg/mL] | MIC (Streptococcus pyogenes) [µg/mL] | MIC (Streptococcus pneumoniae) [µg/mL] | EC50, Trichophyton Skin Infection (Trichophyton quinekeanum) [%] |
| --- | --- | --- | --- | --- | --- | --- | --- | --- |
| Clc1ccc(CSCSC(Cn2ccnc2)c2ccc(Cl)cc2Cl)c(Cl)c1.O=C(O)/C=C/C(=O)O (stereo not drawn) [Compound 3d, 1-[2-(2,4-Dichlorobenzylthiomethylthio)-2-(2,4-dichlorophenyl)ethyl]-1H-imidazole hydrogen fumarate] | 0.25 | > 63 | 0.25 | 0.060 | > 63 | 63 | 63 | 0.078 |
| Clc1ccc(CSCSC(Cn2ccnc2)c2ccc(Cl)cc2)cc1.O=C(O)/C=C/C(=O)O (stereo not drawn) [Compound 3f, 1-[2-(4-Chlorobenzylthiomethylthio)-2-(4-chlorophenyl)ethyl]-1H-imidazole hydrogen fumarate] | 1 | > 63 | 1 | – | 4 | 63 | 63 | – |
| Clc1ccc(C(Cn2ccnc2)SCSCc2ccc(Cl)cc2Cl)cc1.O=C(O)/C=C/C(=O)O (stereo not drawn) [Compound 3g, 1-[2-(4-Chlorophenyl)-2-(2,4-dichlorobenzylthiomethylthio)ethyl]-1H-imidazole hydrogen fumarate] | 1 | 8 | 2 | – | 1 | 63 | 63 | – |

Now from value to molecule:

| MIC (Staphylococcus aureus; Strain A) [µg/mL] | MIC (Staphylococcus aureus; Strain B) [µg/mL] | MIC (Staphylococcus aureus; Strain C) [µg/mL] | EC50, Candida Vaginal Infection (Candida albicans) [%] | MIC (S. faecalis) [µg/mL] | MIC (Streptococcus pyogenes) [µg/mL] | MIC (Streptococcus pneumoniae) [µg/mL] | EC50, Trichophyton Skin Infection (Trichophyton quinekeanum) [%] | SMILES |
| --- | --- | --- | --- | --- | --- | --- | --- | --- |
| 0.25 | > 63 | 0.25 | > 0.3 | 0.5 | > 63 | > 63 | 0.085 | Clc1ccc(C(Cn2ccnc2)SCSCc2c(Cl)cccc2Cl)c(Cl)c1 (stereo not drawn) [Compound 3e, 1-[2-(2,6-Dichlorobenzylthiomethylthio)-2-(2,4-dichlorophenyl)ethyl]1-H-imidazole hydrochloride] |
| – | – | – | 0.0022 | – | – | – | 0.038 | Cl.Clc1ccc(C(Cn2ccnc2)SCSCc2ccc(Cl)s2)c(Cl)c1 (stereo not drawn) [Compound 3i, 1-[2-(5-Chloro-2-thienylmethylthiomethylthio)-2-(2,4-dichlorophenyl)ethyl]-1H-imidazole hydrochloride] |
